pIC50: −log10 of the molar value.
Tested on: RAW 264.7 cells
Test: Nitric oxide suppression assay (IFNγ-induced NO production, Griess detection)
Assay type: cell-based
Conditions: RAW264.7, RAW 264.7 mouse macrophages, 2 h compound pre-treatment, 20 ng/mL interferon gamma, ~18 h
Protocol: RAW 264.7, a mouse macrophage cell line, was obtained from American Type Culture Collection (Manassas Va.) and maintained in the log phase of growth in Dulbecco's Modified Eagle's Medium (DMEM), 10% heat inactivated fetal calf serum and 100 units/mL antibiotic-antimycotic (AA). Cells were cultured and maintained in a humidified incubator at 37° C. under 5% CO2 and 95% air. Cells were sub-cultured every 3 days by scraping and were not used beyond passage 20. All cell culture supplies were obtained from Life Technologies (Grand Island, N.Y.).
RAW 264.7 cells were plated 1 day in advance of experiment at a concentration of 80,000 cells/well onto CellBIND® 96 well plates (Corning, N.Y.) in a total volume of 100 μL. The next day, pre-treat cells with compounds (from 3 μM to 0.3 nM serially diluted in a 10 point curve) from a 10× stock by adding 10 μL per well in complete DMEM media containing 10% fetal calf serum. The plates were centrifuged for 3 minutes at 400×g at room temperature followed by 2 hour incubation at 37° C. The cells were then incubated overnight at 37° C. with 10 μL of the insult, interferon gamma (R&D Systems, Minneapolis, Minn.), from a 10× stock for a final concentration of 20 ng/mL. The plates were centrifuged for 3 minutes at 400×g at room temperature followed by ˜18 hour incubation at 37° C. The following day, transfer 50 μL cell culture supernatant from each well into a clear bottom 96 well plate and follow the instructions from Promega's Griess Detection Kit #G2930 (Madison, Wis.) which involves the addition of 50 μL of the provided sulfanilamide solution for a 5-10 minute incubation at room temperature. Next add 50 μL of the provided N-1-napthylethylenediamine dihydrochloride (NED) solution for a 5-10 minute incubation at room temperature and protected from light. If any air bubbles were introduced into the well, the plates need to be centrifuged for 5 minutes at 400×g at room temperature to avoid interference with absorbance readings. The plates were read for absorbance within 30 minutes with a filter between 520 nm and 550 nm.
For the ability of compounds to suppress the increase in nitric oxide release, the percent maximal intensity of nitric oxide detected in each well was normalized to that induced by the peak value for 20 ng/mL of interferon gamma alone and plotted against the compound concentration to calculate IC50 values and to control for plate-to-plate variability. Concentration-response data were analyzed using GraphPad Prism (San Diego, Calif.); the IC50 values were derived from a single curve fit to the mean data of n=2-3, in duplicates.
All compounds were dissolved in dimethyl sulfoxide at 10 mM stock solutions and tested at a concentration that the dimethyl sulfoxide levels never exceeded 1%.

Going from `C[C@@H]1C(=O)C(C#N)=C[C@]2(C)c3nc(-c4ccncc4)n(-c4ccccc4)c3CC[C@@H]12` [Compound T24] to `C[C@@H]1C(=O)C(C#N)=C[C@]2(C)c3nc(-c4ccccc4)n(-c4ccccc4)c3CC[C@@H]12` [Compound T2], the pIC50 falls from 7.31 to 6.33 (0.98 log units).

`C[C@@H]1C(=O)C(C#N)=C[C@]2(C)c3nc(C(N)=O)n(-c4ccccc4)c3CC[C@@H]12` [Compound T27] and `Cc1nc2c(n1-c1ccccc1)CC[C@H]1[C@H](C)C(=O)C(C#N)=C[C@]21C` [Compound T3] are within 0.2 log units of each other in pIC50: 7.27 for the first, 7.39 for the second.

First: C[C@@H]1C(=O)C(C#N)=C[C@]2(C)c3nc(-c4ccccc4)[nH]c3CC[C@@H]12 [Compound T1]
Second: C[C@@H]1C(=O)C(C#N)=C[C@]2(C)c3nc(Br)n(-c4ccccc4)c3CC[C@@H]12 [Compound T23]
The pIC50 of the first is 0.69 log units lower: 6.82 for the first, 7.51 for the second. The second is the more potent here.

Compared with `C[C@@H]1C(=O)C(C#N)=C[C@]2(C)c3nc(-c4ccccc4)n(-c4nnn(C)n4)c3CC[C@@H]12` [Compound T8], `Cc1ccccc1-c1nc2c(n1-c1nnn(C)n1)CC[C@H]1[C@H](C)C(=O)C(C#N)=C[C@]21C` [Compound T25] is 0.27 log units higher in pIC50: 7.54 for the first, 7.81 for the second. The second is the more potent here.

First: COCCCn1c(C)nc2c1CC[C@H]1[C@H](C)C(=O)C(C#N)=C[C@]21C [Compound T21]
Second: Cc1nc2c(n1-c1cnn(C)c1)CC[C@H]1[C@H](C)C(=O)C(C#N)=C[C@]21C [Compound T13]
The pIC50 of the first is 0.24 log units lower: 6.39 for the first, 6.63 for the second. The second is the more potent here.

`Cc1nc2c(n1-c1cccc(-c3ccccc3)c1)CC[C@H]1[C@H](C)C(=O)C(C#N)=C[C@]21C` [Compound T7] and `Cc1nc2c(n1-c1ccc(-c3ccccc3)cc1)CC[C@H]1[C@H](C)C(=O)C(C#N)=C[C@]21C` [TS] are within 0.2 log units of each other in pIC50: 7.04 for the first, 6.87 for the second.

First: Cc1nc2c(n1-c1cccc(CCC(=O)O)c1)CC[C@H]1[C@H](C)C(=O)C(C#N)=C[C@]21C [Compound T15]
Second: Cc1nc2c(n1-c1cccc(CCC(N)=O)c1)CC[C@H]1[C@H](C)C(=O)C(C#N)=C[C@]21C [Compound T20]
The pIC50 of the first is lower: under 5.52 for the first, 6.00 for the second. The second is the more potent here.

Going from `Cc1nc2c(n1-c1cccc(-c3cncnc3)c1)CC[C@H]1[C@H](C)C(=O)C(C#N)=C[C@]21C` [Compound T22] to `Cc1nc2c(n1-c1cccc(CCCO)c1)CC[C@H]1[C@H](C)C(=O)C(C#N)=C[C@]21C` [Compound T6], the pIC50 rises from 7.32 to 7.71 (0.39 log units). The second is the more potent here.

First: C[C@@H]1C(=O)C(C#N)=C[C@]2(C)c3nc(CCOCc4ccccc4)n(-c4ccccc4)c3CC[C@@H]12 [Compound T11]
Second: C[C@@H]1C(=O)C(C#N)=C[C@]2(C)c3nc(CCO)n(-c4ccccc4)c3CC[C@@H]12 [Compound T12]
The pIC50 of the first is 0.92 log units lower: 7.03 for the first, 7.95 for the second. The second is the more potent here.

First: Cc1ccccc1-n1c(C)nc2c1CC[C@H]1[C@H](C)C(=O)C(C#N)=C[C@]21C [Compound T10]
Second: C[C@@H]1C(=O)C(C#N)=C[C@]2(C)c3nc(C#N)n(-c4ccccc4)c3CC[C@@H]12 [Compound T26]
The pIC50 of the first is 0.36 log units lower: 7.20 for the first, 7.56 for the second. The second is the more potent here.

First: C[C@@H]1C(=O)C(C#N)=C[C@]2(C)c3nc(-c4cnn(C)c4)n(-c4nnn(C)n4)c3CC[C@@H]12 [Compound T16]
Second: C[C@@H]1C(=O)C(C#N)=C[C@]2(C)c3nc(-c4cnn(C)c4)n(-c4ccccc4)c3CC[C@@H]12 [Compound T9]
The pIC50 of the first is 0.76 log units lower: 6.88 for the first, 7.64 for the second.

Compared with `COC(=O)CCc1cccc(-n2c(C)nc3c2CC[C@H]2[C@H](C)C(=O)C(C#N)=C[C@]32C)c1` [Compound T14], `CNC(=O)CCc1cccc(-n2c(C)nc3c2CC[C@H]2[C@H](C)C(=O)C(C#N)=C[C@]32C)c1` [Compound T18] is 0.49 log units lower in pIC50: 6.65 for the first, 6.16 for the second.

First: Cc1nc2c(n1-c1ccccc1)CC[C@H]1[C@H](C)C(=O)C(C(N)=O)=C[C@]21C [Compound T28]
Second: Cc1nc2c(n1-c1cccc(CCC(=O)N(C)C)c1)CC[C@H]1[C@H](C)C(=O)C(C#N)=C[C@]21C [Compound T19]
The pIC50 of the first is 0.22 log units lower: 6.86 for the first, 7.08 for the second.

Going from `C[C@@H]1C(=O)C(C#N)=C[C@]2(C)c3nc(-c4ccccc4)n(-c4cnn(C)c4)c3CC[C@@H]12` [Compound T17] to `CC(=O)OCCCc1cccc(-n2c(-c3ccccc3)nc3c2CC[C@H]2[C@H](C)C(=O)C(C#N)=C[C@]32C)c1` [Compound T4], the pIC50 falls from 6.92 to 6.18 (0.74 log units).
